The record followed here is publication PMC3676484 (Journal of medicinal chemistry, 2013).

For data set [1], the system named is GST-HIF-2α PAS-B* and ARNT PAS-B*-FLAG domains (HIF-2α–ARNT heterodimerization). Nature of the data set: AlphaScreen luminescence proximity assay of HIF-2α–ARNT PAS-B heterodimerization. The note with it: for IC50: read-out: AlphaScreen IC50, disruption of HIF-2α PAS-B*–ARNT PAS-B* heterodimer; for AlphaScreen activity (in words): disruption of HIF-2α–ARNT heterodimerization. A general note: Bead proximity is the source of the signal in Alpha formats.

The nature of another data set: Solubility observation. Format: physicochemical.
The target of another data set is HIF-2α PAS-B domain (Homo sapiens, UniProt Q99814). Nature of the data set: Isothermal titration calorimetry. The note with it: for weakening of binding relative to compound 32: ITC data, compared with 32. It counts as binding. (In general: In ITC the heat of successive injections is recorded.)

Each structure is given as a SMILES string.

Sequence of HIF-2α PAS-B domain (Q99814 240-350 limits assumed): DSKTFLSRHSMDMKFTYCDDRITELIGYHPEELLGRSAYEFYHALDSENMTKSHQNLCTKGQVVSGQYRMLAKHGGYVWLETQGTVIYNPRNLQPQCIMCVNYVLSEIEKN

On to `O=[N+]([O-])c1c(Nc2ccc(Cl)cc2)ccc2nonc12` [Compound 18], for which the IC50 in data set [1] is more than 30 µM. For the compound `Nc1c(Nc2cc(F)cc(Cl)c2)ccc2nonc12` [Compound 47], the “AlphaScreen activity (in words)” value in data set [1] is given as “weak activity”. The “solubility (in words)” value in “Solubility observation” is reported as “relatively insoluble”. Also, the “worsening of binding and disruption relative to compound 32” value on HIF-2α PAS-B domain (binding and disruption, NO2 replaced by NH2, compared with 32) was 30–60 fold.

With `O=[N+]([O-])c1c(Nc2ccc(Br)cc2)ccc2nonc12` [Compound 20], the half-maximal inhibitory concentration (IC50) in data set [1] is more than 30 µM.

As for `O=C1C=CC(=O)N1c1c(Nc2cc(F)cc(Cl)c2)ccc2nonc12` [Compound 50], the half-maximal inhibitory concentration (IC50) in data set [1] is more than 30 µM. Turning to `O=[N+]([O-])c1c(Nc2ccc(C(F)(F)F)cc2Cl)ccc2nonc12` [Compound 24], the IC50 in data set [1] is more than 30 µM. As to `O=[N+]([O-])c1c(Nc2ccc(F)cc2)ccc2nonc12` [Compound 17], the half-maximal inhibitory concentration (IC50) in data set [1] is more than 30 µM. In the case of `O=C(CCl)Nc1c(Nc2cc(F)cc(Cl)c2)ccc2nonc12` [Compound 49], in data set [1], the IC50 was more than 30 µM.

Regarding `O=[N+]([O-])c1c(Nc2cc(F)cc(F)c2)ccc2nonc12` [Compound 30], the “weakening of binding relative to compound 32” value at HIF-2α PAS-B domain is 8 fold. As to `CN(C)S(=O)(=O)c1c(Nc2cc(F)cc(Cl)c2)ccc2nonc12` [Compound 55], in data set [1], the “AlphaScreen activity (in words)” value was “inactive as disruptors”.

As to `O=[N+]([O-])c1c(NCc2c(F)cccc2Cl)ccc2nonc12` [Compound 7], the IC50 in data set [1] is more than 30 µM. For the compound `O=[N+]([O-])c1c(Nc2cccc(Cl)c2)ccc2nonc12` [Compound 19], the “weakening of binding relative to compound 32” value at HIF-2α PAS-B domain is given as “two fold reduction in affinity”.

As for `O=[N+]([O-])c1c(NCc2cc(F)ccc2C(F)(F)F)ccc2nonc12` [Compound 11], the half-inhibitory concentration (IC50) in data set [1] is more than 30 µM. `O=[N+]([O-])c1c(Nc2cccc(F)c2)ccc2nonc12` [Compound 23]: the “weakening of binding relative to compound 32” value at HIF-2α PAS-B domain is listed as 25 fold. On to `CNS(=O)(=O)c1c(Nc2cc(F)cc(Cl)c2)ccc2nonc12` [Compound 54], for which, in data set [1], the “AlphaScreen activity (in words)” value is “inactive as disruptors” and the IC50 is more than 30 µM. Take `Fc1cc(Cl)cc(Nc2ccc3nonc3c2)c1` [Compound 46]: in data set [1], the “AlphaScreen activity (in words)” value is given as “weak activity”. The “solubility (in words)” value in “Solubility observation” is “relatively insoluble”.

For the compound `Cc1ccc(CNc2ccc3nonc3c2[N+](=O)[O-])cc1` [Compound 4], the IC50 in data set [1] was more than 30 µM. Still for that read-out and setting: then `COc1cccc(Nc2ccc3nonc3c2[N+](=O)[O-])c1` [Compound 16], with more than 30 µM; and `CC(=O)Nc1c(Nc2cc(F)cc(Cl)c2)ccc2nonc12` [Compound 48], with more than 30 µM.

The term IC50 denotes the concentration that gives 50% inhibition.
